# Measured values taken from patent US11800867B2, “Methods of repelling biting arthropods, reducing pathogen spread and treating arthropod infestation” (priority 2016, dated 2023).
# “And” between values parts separate entries of the source, which are not always exact repeats. Equal entries are not always repeated. “Also recorded” adds a separate entry of the source.
# Tests used:
# [1] = test system: aphids (Schizaphis gramium); assay: Treated filter paper knockdown (KD) and mortality trial (Example 4); assay type: in vivo; conditions: Nootkatone 1% in ethanol on filter paper
# Experimental: A laboratory trial was conducted to assess the efficacy of nootkatone applied to filter paper against aphids (Schizaphis gramium), dust mites (Dermatophagoides sp.), termites (Reticulitermes flavipes), deer ticks (Ixodes scapularis), biting midges (Culicoides sp.), fire ants (Solenopsis invicta), and mosquitoes (Aedes aegypti and Culex), in terms of knockdown (KD) and mortality. One concentration (1% in ethanol) of nootkatone was assessed for most species, but three concentrations (0.25%, 0.5%, and 1% in ethanol) were assessed for mosquitoes. A negative control group, consisting of filter paper treated with ethanol, was also assessed for comparison purposes for each species.
# Test systems were introduced to treated filter paper, allowed to dry, and then introduced into treatment chamber, where treated arthropods were monitored at intervals up to 72 hours. If 100% mortality was obtained prior to 72 hours, the individual study was halted.
# Readings were discontinued if treated mortality reaches […], or control mortality exceeds 20%.
# [2] = test system: Ae. aegypti mosquitoes; assay: Continuous exposure to treated filter paper, knockdown and mortality (Example 3); assay type: in vivo, Aedes aegypti; conditions: 1% nootkatone in ethanol on filter paper
# Experimental: In the following example, the effectiveness of a 1% nootkatone composition in killing Ae. aegypti mosquitoes was determined.
# A composition of 1% nootkatone formulated in ethanol was added to filter paper, which was then introduced into a Fluon®-coated container. Ten Ae. aegypti mosquitoes were added to the container and observed at 30 min, 1, 4, and 24 hr. Five replicates were performed. […] An untreated population was observed as a negative control.
# [3] = test system: female Aedes aegypti mosquitoes; assay: In vitro membrane feeder repellency assay, probing of treated collagen membranes (Example 2); assay type: in vivo; conditions: for Percent repellency: 25 μL on collagen membrane, twenty minutes, average ± SE, n = 5
# From the text: (§1) A laboratory trial was required to evaluate the repellency of 1% Nootkatone against female Aedes aegypti, Culex quinquefasciatus, and Anopheles quadrimaculatus mosquitoes using an in vitro method.
# (§2) Female adult laboratory reared Aedes aegypti, Culex quinquefasciatus, and Anopheles quadrimaculatus mosquitoes (susceptible) were obtained from Benzon Research in Carlisle, Pa. 250 mosquitoes were used per replicate (5 replicates per test, per species). Adult mosquitoes were 3-8 days old.
# (§3) Nootkatone was diluted in ethanol and acetone (note that Nootkatone diluted in acetone was not tested against An. quadrimaculatus). A positive control consisting of 20% DEET in ethanol was prepared using stock solutions. Negative controls consisted of no treatment, and ethanol-only treatment.
# (§4) The treatments were applied directly to prepared collagen membranes by pipetting 25 μL of the appropriate substance onto a membrane and spreading it evenly with the tip of the pipette.
# (§5) Exposure container. A 30.5 cm×30.5 cm×30.5 cm rigid plastic frame supported by four, 4 cm high legs, with a sleeved entry on one side and a sliding door on the bottom.
# (§6) Membrane feeder. Five wells (3 cm in diameter×8 mm in depth) in line on a hollow plastic block (6 cm wide×22 cm long×3 cm deep), which fits through the sliding door in the bottom of the exposure container. Hoses attached to each side of the block circulate heated water that is pumped from a water bath. The sliding door in the bottom of the exposure container covers and uncovers the wells in the membrane feeder, allowing mosquitoes to access the wells.
# (§7) Test set-up. The membrane feeder was connected to a heated water bath, and warm water passed through the feeder via a circulating pump so that the wells were warmed to 89-95° F. Seventy-two (72) mg of ATP (disodium salt) were added to 26 mL of warmed citrated bovine blood, which was poured into the wells until they were completely full.
# (§8) The collagen membranes were placed on vacuum greased wax paper for treatment. They were then treated as described above and left for five minutes to dry. After they dried, the membranes were placed over each of the wells (using vacuum grease as an adhesive), completely covering the blood.
# (§9) Exposure to mosquitoes. The mosquitoes were released into the exposure container just prior to exposure to the membranes. The exposure container was then placed on the membrane feeder and the sliding door opened, allowing the mosquitoes to access the wells. The number of mosquitoes probing each membrane was recorded every two minutes for twenty minutes.
# (§10) The above procedures were repeated until five replicates were completed. A new batch of 250 female mosquitoes and fresh blood were used for each replicate, and the wells were cleaned in between replicates. The position of the treatments was rotated for each replicate, so that each treatment was tested on each of the five wells.
# (§11) Percent repellency was calculated for each replicate using the total number of probes with the following formula:
# (§12) [formula] • where C=the total number of probes on the untreated well • and T=the total number of probes on the treated well
# (§13) Average percent repellency and standard error were then calculated across all five replicates. Shapiro-Wilks tests were conducted to determine the normality of the data, based on total number of probes per replicate. Depending on normality, student t-tests (with concurrent F-tests for variance) or Mann-Whitney tests were then used to determine significance between the treatments.
# [4] = test system: female Culex quinquefasciatus mosquitoes; assay: as above; assay type: in vivo; conditions: for Percent repellency: 25 μL on collagen membrane, twenty minutes, average ± SE, n = 5
# From the text: as §1, §2, §3, §4, §5, §6, §7, §8, §9, §10, §11, §12, §13
# [5] = test system: female Anopheles quadrimaculatus mosquitoes; assay: as above; assay type: in vivo; conditions: for Percent repellency: 1% Nootkatone in ethanol, 25 μL on collagen membrane, twenty minutes, average ± SE, n = 5
# From the text: as §1, §2, §3, §4, §5, §6, §7, §8, §9, §10, §11, §12, §13
# [6] = test system: Aedes aegypti mosquitoes; assay: Choice design repellency test, treated collagen membrane-covered wells filled with warm blood (Example 1); assay type: in vivo; conditions: 1% nootkatone compositions (ethanol and acetone based); probing recorded during 20 min
# Experimental: In the following example, the effectiveness of 1% nootkatone compositions in repelling mosquitoes was determined in comparison with DEET in a choice design test.
# Compositions of 1% nootkatone were formulated in either ethanol or acetone and coated onto collagen membrane-covered wells filled with warm blood.
# Two hundred and fifty female mosquitoes aged 4-8 days were sucrose deprived for 18 hr and then introduced to the collagen membrane-covered wells. Mosquito probing of the treated collagen membranes was recorded every 2 min during a 20 min period.
# Five replicates were performed. A 20% DEET composition was used as a positive control and an ethanol only solution served as a negative control.
# [7] = 1% Nootkatone diluted in ethanol and in acetone
smiles,measurement,setting,value
"C=C(C)[C@@H]1CCC2=CC(=O)C[C@@H](C)[C@]2(C)C1 [Nootkatone, nootkatone]",Time required for greater than 90% killing,[1],30 min
same,Means Affected,[1]; 30 minutes post introduction,100.0%
same,Means Dead,[1]; 30 minutes post introduction,100% and 94.0%
same,Means KD,[1]; 30 minutes post introduction,6.0%
same,Knockdown rate after 1 hr relative to 30 min,[2]; after 1 hr,more than doubled
same,Knockdown rate,[2]; after 4 hr,greater than 90%
same,Exposure time after which mosquitoes begin to be affected,[2]; continuous exposure,30 min
same,Exposure time at which knockdown was complete (FIG. 5),[2]; continuous exposure,< 24 h
same,Average percent of mosquitoes affected (FIG. 3),[2]; continuous exposure 24 hr,All mosquitoes were affected
same,"Protection compared with untreated or ethanol alone (significance, α=0.05)",[3]; [7],significantly higher protection
same,"Protection level compared with 20% DEET (significance, α=0.05)",[3]; [7],not significantly different from 20% DEET
same,Percent repellency,[3]; 1% Nootkatone in acetone,91.5 ± 2.1%
same,Percent repellency,[3]; 1% Nootkatone in ethanol,92.0 ± 3.4%
same,"Protection compared with untreated or ethanol alone (significance, α=0.05)",[4]; [7],significantly higher protection
same,"Protection level compared with 20% DEET (significance, α=0.05)",[4]; [7],not significantly different from 20% DEET
same,Percent repellency,[4]; 1% Nootkatone in acetone,80.1 ± 10.0%
same,Percent repellency,[4]; 1% Nootkatone in ethanol,83.8 ± 5.5%
same,Percent repellency,[5],90.3%
same,Percent repellency,[5]; listed as Nootkatone (ethanol),90.3 ± 5.3%
same,Protection compared with ethanol alone (significance),[5]; 1% nootkatone diluted in ethanol,not found to be significantly different from ethanol alone
same,Average repellency compared with 20% DEET (FIG. 2),[6],repellency similar to that of 20% DEET; also recorded: comparable repellency
